Laboratory results taken from patent US9302999B2, “Substituted triazoles as herbicides” (E. I. DU PONT DE NEMOURS AND COMPANY, priority 2012, dated 2016).

Experiments:
Type in all cases: in vivo
corn (Zea mays) = experiment: Test A pre-/postemergence: corn
Procedure, shortened: (§1)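 Each species received preemergence soil-directed spraying and, at the same time, postemergence treatment of seedlings 2–10 cm tall. Formulation: non-phytotoxic solvent mixture including surfactant. Response assessed visually about ten days on, relative to untreated controls, 0–100 scale.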

[1] = tested on: sedge, umbrella (small-flower umbrella sedge Cyperus difformis); experiment: Test B flooded paddy: sedge, umbrella; conditions: Flood, applied to paddy water at 2-leaf stage, visually evaluated after 13 to 15 days
Procedure, shortened: (§2)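 Paddy-water application: seedlings at 2-leaf stage, flood depth 3 cm maintained for the test duration. Evaluation after 13–15 days in the greenhouse by eye relative to controls; 0–100 scale.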

[2] = tested on: ducksalad (Heteranthera limosa); experiment: Test B flooded paddy: ducksalad; conditions: Flood, applied to paddy water at 2-leaf stage, visually evaluated after 13 to 15 days
Procedure, shortened: as §2

[3] = tested on: pigweed (Amaranthus retroflexus); experiment: Test A pre-/postemergence: pigweed
Procedure, shortened: as §1

[4] = tested on: barnyardgrass (Echinochloa crus-galli); experiment: Test B flooded paddy: barnyardgrass; conditions: Flood, applied to paddy water at 2-leaf stage, visually evaluated after 13 to 15 days
Procedure, shortened: as §2

[5] = tested on: morningglory (Ipomoea spp.); experiment: Test A pre-/postemergence: morningglory
Procedure, shortened: as §1

[6] = tested on: wheat (Triticum aestivum); experiment: Test A pre-/postemergence: wheat
Procedure, shortened: as §1

rice (Oryza sativa) = experiment: Test B flooded paddy: rice; conditions: Flood, applied to paddy water at 2-leaf stage, visually evaluated after 13 to 15 days
Procedure, shortened: as §2

[7] = tested on: velvetleaf (Abutilon theophrasti); experiment: Test A pre-/postemergence: velvetleaf
Procedure, shortened: as §1

[8] = tested on: foxtail, giant (giant foxtail, Setaria faberii); experiment: Test A pre-/postemergence: foxtail, giant
Procedure, shortened: as §1

[9] = tested on: crabgrass, large (large crabgrass, Digitaria sanguinalis); experiment: Test A pre-/postemergence: crabgrass, large
Procedure, shortened: as §1

[10] = tested on: barnyardgrass (Echinochloa crus-galli); experiment: Test A pre-/postemergence: barnyardgrass
Procedure, shortened: as §1

[11] = Postemergence, 125 g ai/ha, 0 to 100 scale, 0 is no effect, 100 is complete control
[12] = Postemergence, 500 g ai/ha, visual rating on 0 to 100 scale (0 no effect, 100 complete control), approximately ten days
[13] = Preemergence, 125 g ai/ha, 0 to 100 scale where 0 is no effect and 100 is complete control
[14] = Preemergence, 500 g ai/ha, 0 to 100 scale (0 no effect, 100 complete control)
[15] = Postemergence, 1000 g ai/ha, visual rating on 0 to 100 scale (0 no effect, 100 complete control), approximately ten days
[16] = Preemergence, 1000 g ai/ha, 0 to 100 scale, 0 is no effect, 100 is complete control
[17] = Postemergence, 500 g ai/ha, 0 to 100 scale, 0 is no effect, 100 is complete control

Cc1nn(-c2ccc(F)c(F)c2)nc1Cc1ccnc(C(F)F)c1 [Compound 136]
Corn plant response rating (corn (Zea mays); [11]): 20 | Corn plant response rating (corn (Zea mays); [12]): 40 | Plant response rating, Corn (corn (Zea mays); [13]): 0 | Plant response rating, Corn (corn (Zea mays); [14]): 10 | Plant response rating, Sedge, Umbrella (0 to 100 scale, 0 is no effect, 100 is complete control) ([1]; 250 g ai/ha): 85 | Plant response rating, Ducksalad (0 to 100 scale, 0 is no effect, 100 is complete control) ([2]; 250 g ai/ha): 75 | Plant response rating, Pigweed [3, 11]: 100 | Pigweed plant response rating [3, 12]: 100 | Plant response rating, Pigweed [3, 13]: 90 | Plant response rating, Pigweed [3, 14]: 90 | Plant response rating, Barnyardgrass (0 to 100 scale, 0 is no effect, 100 is complete control) ([4]; 250 g ai/ha): 45 | Plant response rating, Morningglory [5, 11]: 70 | Morningglory plant response rating [5, 12]: 100 | Plant response rating, Morningglory [5, 13]: 20 | Plant response rating, Morningglory [5, 14]: 60 | Plant response rating, Wheat [6, 11]: 30 | Wheat plant response rating [6, 12]: 30 | Plant response rating, Wheat [6, 13]: 0 | Plant response rating, Wheat [6, 14]: 10 | Plant response rating, Rice (0 to 100 scale, 0 is no effect, 100 is complete control) (rice (Oryza sativa); 250 g ai/ha): 35 | Plant response rating, Velvetleaf [7, 11]: 90 | Velvetleaf plant response rating [7, 12]: 100 | Plant response rating, Velvetleaf [7, 13]: 30 | Plant response rating, Velvetleaf [7, 14]: 60 | Foxtail, Giant plant response rating [8, 11]: 90 | Foxtail, Giant plant response rating [8, 12]: 90 | Plant response rating, Foxtail, Giant [8, 13]: 100 | Plant response rating, Foxtail, Giant [8, 14]: 100 | Crabgrass, Large plant response rating [9, 11]: 60 | Crabgrass, Large plant response rating [9, 12]: 90 | Plant response rating, Crabgrass, Large [9, 13]: 80 | Plant response rating, Crabgrass, Large [9, 14]: 100 | Barnyardgrass plant response rating [10, 11]: 60 | Barnyardgrass plant response rating [10, 12]: 90 | Plant response rating, Barnyardgrass [10, 13]: 70 | Plant response rating, Barnyardgrass [10, 14]: 100

CON=C(c1cccc(C(F)(F)F)c1)c1nn(-c2ccnc(C(F)(F)F)c2)nc1C [Compound 140]
Corn plant response rating (corn (Zea mays); [11]): 20 | Corn plant response rating (corn (Zea mays); [12]): 30 | Plant response rating, Corn (corn (Zea mays); [13]): 0 | Plant response rating, Corn (corn (Zea mays); [14]): 0 | Plant response rating, Sedge, Umbrella (0 to 100 scale, 0 is no effect, 100 is complete control) ([1]; 250 g ai/ha): 0 | Plant response rating, Ducksalad (0 to 100 scale, 0 is no effect, 100 is complete control) ([2]; 250 g ai/ha): 0 | Plant response rating, Pigweed [3, 11]: 100 | Pigweed plant response rating [3, 12]: 100 | Plant response rating, Pigweed [3, 13]: 30 | Plant response rating, Pigweed [3, 14]: 80 | Plant response rating, Barnyardgrass (0 to 100 scale, 0 is no effect, 100 is complete control) ([4]; 250 g ai/ha): 30 | Plant response rating, Morningglory [5, 11]: 50 | Morningglory plant response rating [5, 12]: 90 | Plant response rating, Morningglory [5, 13]: 0 | Plant response rating, Morningglory [5, 14]: 0 | Plant response rating, Wheat [6, 11]: 10 | Wheat plant response rating [6, 12]: 20 | Plant response rating, Wheat [6, 13]: 0 | Plant response rating, Wheat [6, 14]: 0 | Plant response rating, Rice (0 to 100 scale, 0 is no effect, 100 is complete control) (rice (Oryza sativa); 250 g ai/ha): 0 | Plant response rating, Velvetleaf [7, 11]: 20 | Velvetleaf plant response rating [7, 12]: 70 | Plant response rating, Velvetleaf [7, 13]: 20 | Plant response rating, Velvetleaf [7, 14]: 30 | Foxtail, Giant plant response rating [8, 11]: 20 | Foxtail, Giant plant response rating [8, 12]: 50 | Plant response rating, Foxtail, Giant [8, 13]: 20 | Plant response rating, Foxtail, Giant [8, 14]: 70 | Crabgrass, Large plant response rating [9, 11]: 20 | Crabgrass, Large plant response rating [9, 12]: 50 | Plant response rating, Crabgrass, Large [9, 13]: 20 | Plant response rating, Crabgrass, Large [9, 14]: 50 | Barnyardgrass plant response rating [10, 11]: 10 | Barnyardgrass plant response rating [10, 12]: 30 | Plant response rating, Barnyardgrass [10, 13]: 0 | Plant response rating, Barnyardgrass [10, 14]: 30

Cc1nn(-c2ccc(F)cc2)nc1Cc1cccc(C(F)(F)F)c1 [Compound 157]
Plant response rating, Corn (corn (Zea mays); [11]): 20 | Corn plant response rating (corn (Zea mays); [12]): 40 | Plant response rating, Corn (corn (Zea mays); [13]): 0 | Plant response rating, Corn (corn (Zea mays); [14]): 0 | Plant response rating, Sedge, Umbrella (0 to 100 scale, 0 is no effect, 100 is complete control) ([1]; 250 g ai/ha): 40 | Plant response rating, Ducksalad (0 to 100 scale, 0 is no effect, 100 is complete control) ([2]; 250 g ai/ha): 20 | Plant response rating, Pigweed [3, 11]: 100 | Pigweed plant response rating [3, 12]: 100 | Plant response rating, Pigweed [3, 13]: 80 | Plant response rating, Pigweed [3, 14]: 100 | Plant response rating, Barnyardgrass (0 to 100 scale, 0 is no effect, 100 is complete control) ([4]; 250 g ai/ha): 0 | Plant response rating, Morningglory [5, 11]: 60 | Morningglory plant response rating [5, 12]: 80 | Plant response rating, Morningglory [5, 13]: 0 | Plant response rating, Morningglory [5, 14]: 0 | Plant response rating, Wheat [6, 11]: 0 | Wheat plant response rating [6, 12]: 20 | Plant response rating, Wheat [6, 13]: 0 | Plant response rating, Wheat [6, 14]: 0 | Plant response rating, Rice (0 to 100 scale, 0 is no effect, 100 is complete control) (rice (Oryza sativa); 250 g ai/ha): 0 | Plant response rating, Velvetleaf [7, 11]: 40 | Plant response rating, Velvetleaf [7, 13]: 0 | Plant response rating, Velvetleaf [7, 14]: 0 | Plant response rating, Foxtail, Giant [8, 11]: 80 | Foxtail, Giant plant response rating [8, 12]: 90 | Plant response rating, Foxtail, Giant [8, 13]: 90 | Plant response rating, Foxtail, Giant [8, 14]: 100 | Plant response rating, Crabgrass, Large [9, 11]: 40 | Crabgrass, Large plant response rating [9, 12]: 80 | Plant response rating, Crabgrass, Large [9, 13]: 20 | Plant response rating, Crabgrass, Large [9, 14]: 90 | Plant response rating, Barnyardgrass [10, 11]: 20 | Barnyardgrass plant response rating [10, 12]: 70 | Plant response rating, Barnyardgrass [10, 13]: 20 | Plant response rating, Barnyardgrass [10, 14]: 100

Cc1nn(-c2ccc(F)cc2)nc1C(=O)c1ccnc(C(F)(F)F)c1 [Compound 167]
Corn plant response rating (corn (Zea mays); [15]): 30 | Plant response rating, Corn (corn (Zea mays); [16]): 30 | Plant response rating, Sedge, Umbrella (0 to 100 scale, 0 is no effect, 100 is complete control) ([1]; 125 g ai/ha): 50 | Plant response rating, Ducksalad (0 to 100 scale, 0 is no effect, 100 is complete control) ([2]; 125 g ai/ha): 0 | Pigweed plant response rating [3, 15]: 100 | Plant response rating, Pigweed [3, 16]: 100 | Plant response rating, Barnyardgrass (0 to 100 scale, 0 is no effect, 100 is complete control) ([4]; 125 g ai/ha): 0 | Morningglory plant response rating [5, 15]: 100 | Wheat plant response rating [6, 15]: 40 | Plant response rating, Wheat [6, 16]: 80 | Plant response rating, Rice (0 to 100 scale, 0 is no effect, 100 is complete control) (rice (Oryza sativa); 125 g ai/ha): 30 | Velvetleaf plant response rating [7, 15]: 50 | Plant response rating, Velvetleaf [7, 16]: 20 | Foxtail, Giant plant response rating [8, 15]: 100 | Plant response rating, Foxtail, Giant [8, 16]: 100 | Crabgrass, Large plant response rating [9, 15]: 100 | Plant response rating, Crabgrass, Large [9, 16]: 100 | Barnyardgrass plant response rating [10, 15]: 100 | Plant response rating, Barnyardgrass [10, 16]: 100

CC(C)(C)c1nn(-c2ccc(F)cc2)nc1Cc1ccnc(C(F)(F)F)c1 [Compound 176]
Plant response rating, Corn (corn (Zea mays); [11]): 0 | Corn plant response rating (corn (Zea mays); [17]): 0 | Plant response rating, Corn (corn (Zea mays); [13]): 0 | Plant response rating, Corn (corn (Zea mays); [14]): 0 | Plant response rating, Sedge, Umbrella (0 to 100 scale, 0 is no effect, 100 is complete control) ([1]; 125 g ai/ha): 0 | Plant response rating, Ducksalad (0 to 100 scale, 0 is no effect, 100 is complete control) ([2]; 125 g ai/ha): 0 | Plant response rating, Pigweed [3, 11]: 0 | Pigweed plant response rating [3, 17]: 0 | Plant response rating, Pigweed [3, 13]: 0 | Plant response rating, Pigweed [3, 14]: 0 | Plant response rating, Barnyardgrass (0 to 100 scale, 0 is no effect, 100 is complete control) ([4]; 125 g ai/ha): 0 | Plant response rating, Morningglory [5, 11]: 0 | Morningglory plant response rating [5, 17]: 0 | Plant response rating, Morningglory [5, 13]: 0 | Plant response rating, Morningglory [5, 14]: 0 | Plant response rating, Wheat [6, 11]: 0 | Wheat plant response rating [6, 17]: 0 | Plant response rating, Wheat [6, 13]: 0 | Plant response rating, Wheat [6, 14]: 0 | Plant response rating, Rice (0 to 100 scale, 0 is no effect, 100 is complete control) (rice (Oryza sativa); 125 g ai/ha): 0 | Plant response rating, Velvetleaf [7, 11]: 0 | Velvetleaf plant response rating [7, 17]: 0 | Plant response rating, Velvetleaf [7, 13]: 0 | Plant response rating, Velvetleaf [7, 14]: 0 | Plant response rating, Foxtail, Giant [8, 11]: 0 | Foxtail, Giant plant response rating [8, 17]: 0 | Plant response rating, Foxtail, Giant [8, 13]: 0 | Plant response rating, Foxtail, Giant [8, 14]: 0 | Plant response rating, Crabgrass, Large [9, 11]: 0 | Crabgrass, Large plant response rating [9, 17]: 0 | Plant response rating, Crabgrass, Large [9, 13]: 0 | Plant response rating, Crabgrass, Large [9, 14]: 0 | Plant response rating, Barnyardgrass [10, 11]: 0 | Barnyardgrass plant response rating [10, 17]: 0 | Plant response rating, Barnyardgrass [10, 13]: 0 | Plant response rating, Barnyardgrass [10, 14]: 0
